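Following 48 hours of exposure in 96-well plates, responses at five concentrations were used to interpolate endpoints linearly. At the GI50, growth is halved.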 Calls of active or inactive are those of the source. Cut-off read from the data, not from the text of the source: active = GI50 up to about 1.1 µM and inactive = higher.
How the values were obtained:
Assay in all cases: NCI anticancer screen, dose series, 48 h
DMS-114 = tested on: DMS-114
M19-MEL = tested on: M19-MEL
DLD-1 = tested on: DLD-1
LXFL 529 = tested on: LXFL 529
HOP-18 = tested on: HOP-18
SNB-78 = tested on: SNB-78
MDA-N = tested on: MDA-N
XF498 = tested on: XF498
RXF 631 = tested on: RXF 631

SMILES | GI50 (DMS-114) | GI50 (M19-MEL) | GI50 (MDA-N) | also measured
O=c1ccn([C@@H]2C[C@H](CO)C[S+]([O-])C2)c(=O)[nH]1 (stereo not given in full) | > 100 µM (inactive) | > 100 µM (inactive) |  | GI50 (DLD-1): > 100 µM (inactive); GI50 (LXFL 529): > 100 µM (inactive); GI50 (HOP-18): > 100 µM (inactive)
COc1cc2c(cc1O)[C@@]1(Cc3ccc(OC)c(OC)c3)CCC(=O)N1CC2 | > 100 µM (inactive) | > 100 µM (inactive) |  | GI50 (SNB-78): > 100 µM (inactive); GI50 (DLD-1): > 100 µM (inactive); GI50 (LXFL 529): > 100 µM (inactive); GI50 (HOP-18): 31.3 µM (inactive)
O=C1NC(N2CCCCC2)=N/C1=C\c1ccco1 |  |  | > 100 µM (inactive) | 
c1ccc(/N=C2\c3ccsc3/C(=N/c3ccccc3)c3ccsc32)cc1 |  |  | 0.244 µM (active) | 
N#C/C(=C\c1ccc(CP(=O)(O)O)cc1)C(N)=O | > 100 µM (inactive) | > 100 µM (inactive) |  | GI50 (XF498): > 100 µM (inactive); GI50 (DLD-1): > 100 µM (inactive); GI50 (LXFL 529): > 100 µM (inactive); GI50 (HOP-18): > 100 µM (inactive)
CC1=NN(c2ccccc2)C(=O)C1/N=N/c1ccc(S(N)(=O)=O)cc1 (stereo not given) |  |  | > 100 µM (inactive) | 
Cc1ccc(S(=O)(=O)OC2CC(C(C)(C)C)CCC2c2ccccc2)cc1 (stereo not given) |  |  | 99.8 µM (inactive) | 
CCOC(=O)[C@@]1(C(C)=O)CC(C)=C(C)C[S@@+]1[O-] |  |  | > 100 µM (inactive) | 
C=C1CC(Cn2cc(C)c(=O)[nH]c2=O)(c2ccc(Cl)cc2)OC1=O (stereo not given) |  |  | 2.99 µM (inactive) | 
Cc1ccc(S(=O)(=O)NC(=O)NC(CC(=O)O)C(=O)O)cc1 (stereo not given) |  |  | > 100 µM (inactive) | 
O=C1c2ccccc2C(=O)c2c(NC(=O)C(Cl)CCl)cccc21 (stereo not given) |  |  | 10.4 µM (inactive) | 
COc1ccc(-c2cc3ccccc3oc2=O)cc1OC |  |  | > 100 µM (inactive) | 
CC(=O)OC(CCC1(C)OC1COc1ccc(CCNC(=O)c2ccccc2)cc1)C(C)(C)OC(C)=O (stereo not given) | 0.325 µM (active) | 18.4 µM (inactive) |  | GI50 (SNB-78): 36.2 µM (inactive); GI50 (DLD-1): 45 µM (inactive); GI50 (LXFL 529): 10.3 µM (inactive); GI50 (HOP-18): > 100 µM (inactive)
Cn1c2c(c3ccccc31)CCN1C(=O)CN(C(=O)C3CCCCC3)CC21 (stereo not given) |  |  | > 100 µM (inactive) | 
c1cc(C[S+]2CCCC2)sc1C[S+]1CCCC1 |  |  | > 100 µM (inactive) | 
CC[C@]1(Cc2ccc(OC)c(OC)c2)C=[N+]([O-])O[C@H](OC2CCCC2(c2ccccc2)c2ccccc2)[C@@H]1OC(=O)c1ccccc1 (stereo not given in full) |  |  | 8.17 µM (inactive) | 
C=C1C(=O)O[C@@H]2CC(CO)=C([C@@H](C)CCCO)[C@@H](OC(=O)/C(C)=C\C)[C@H]12 |  |  | 15.1 µM (inactive) | 
N#CC(NC12CC3CC(CC(C3)C1)C2)c1ccc2c(c1)OCO2 (stereo not given) |  |  | > 100 µM (inactive) | 

SMILES | GI50 (DMS-114) | GI50 (M19-MEL) | GI50 (MDA-N) | also measured
COc1cc(O)c2c(=O)c3cccc(C)c3[nH]c2c1 |  |  | > 10 µM (inactive) | 
CN1C(=O)C(=O)c2cc3c(c4c2c1cc1ccccc14)OCO3 [CEPHARADIONE A] | 31.6 µM (inactive) | 28.4 µM (inactive) |  | GI50 (SNB-78): 7.83 µM (inactive); GI50 (XF498): > 100 µM (inactive); GI50 (DLD-1): 31.2 µM (inactive); GI50 (LXFL 529): 30.8 µM (inactive); GI50 (HOP-18): 42.9 µM (inactive)
COc1ccc(Cn2nc(OCc3ccccn3)c3cc([N+](=O)[O-])ccc32)cc1 |  |  | > 100 µM (inactive) | 
COc1cc2oc3cc(=O)cc4oc(-c5ccccc5)cc(c2c2c1CCC(c1ccccc1)O2)c43 (stereo not given) |  |  | 22 µM (inactive) | 
Nc1ccccc1Nc1ccccc1C(=O)[O-].Nc1ccccc1Nc1ccccc1C(=O)[O-].[Zn+2] |  |  |  | GI50 (XF498): 28.1 µM (inactive)
CC1CCN(CCC(=O)CC(c2ccccc2)c2c(O)c3ccccc3oc2=O)CC1 (stereo not given) | > 100 µM (inactive) | > 100 µM (inactive) |  | GI50 (SNB-78): 34.4 µM (inactive); GI50 (RXF 631): > 100 µM (inactive); GI50 (XF498): > 100 µM (inactive); GI50 (DLD-1): > 100 µM (inactive)
N#CC(c1ccccc1)(c1ccccc1)[C@@H](c1ccccc1)[C@H](Cc1ccccc1)NS(=O)(=O)c1ccccc1 |  |  | > 100 µM (inactive) | 
CC(C)Cc1cc(CCC(=O)Nc2ccccc2[N+](=O)[O-])nc(NC#N)n1 | > 100 µM (inactive) | > 100 µM (inactive) |  | GI50 (XF498): > 100 µM (inactive); GI50 (DLD-1): > 100 µM (inactive); GI50 (LXFL 529): > 100 µM (inactive); GI50 (HOP-18): > 100 µM (inactive)
NC(CCCNc1cccc(O)c1)C(=O)O (stereo not given) | > 100 µM (inactive) | > 100 µM (inactive) |  | GI50 (SNB-78): > 100 µM (inactive); GI50 (DLD-1): > 100 µM (inactive); GI50 (LXFL 529): > 100 µM (inactive); GI50 (HOP-18): > 100 µM (inactive)
C[C@@H](C[C@@H](O)[C@H](O)C(C)(C)O)[C@H]1CC=C2[C@]3(C)[C@H](O)C[C@H]4C(C)(C)[C@H](O)CC[C@]4(C)[C@H]3CC[C@@]21C |  |  | 15.6 µM (inactive) | 
O=C1CCCN(c2ccccc2)N1 | > 100 µM (inactive) | > 100 µM (inactive) |  | GI50 (RXF 631): > 100 µM (inactive); GI50 (LXFL 529): > 100 µM (inactive)
O=C(NNS(=O)(=O)c1ccc(Br)cc1)c1ccc(Cl)cc1NC(=O)C12CC3CC(CC(C3)C1)C2 |  |  | 14.2 µM (inactive) | 
CCN(CC)CCC1CC/C(=C\c2ccc(OC)cc2)C1=O (stereo not given) | 38.6 µM (inactive) | 54.8 µM (inactive) |  | GI50 (SNB-78): 81.1 µM (inactive); GI50 (XF498): 49.8 µM (inactive); GI50 (DLD-1): > 100 µM (inactive); GI50 (LXFL 529): 58.5 µM (inactive); GI50 (HOP-18): > 100 µM (inactive)
CN(C)CCCN1c2ccccc2Sc2cnccc21 |  |  | 64.7 µM (inactive) | 
O=C(CC(C(=O)O)N1CCOCC1)c1ccccc1 (stereo not given) |  |  | 17.8 µM (inactive) | 
CC(=O)CSc1c(-c2ccccc2)c(=O)n(-c2ccccc2)c(=S)n1-c1ccccc1 |  |  | > 100 µM (inactive) | 
Cc1ccc(/C=C/C(=O)CCN(C)C)cc1 | 18.3 µM (inactive) | 19.7 µM (inactive) |  | GI50 (SNB-78): 28.6 µM (inactive); GI50 (XF498): 14.2 µM (inactive); GI50 (DLD-1): 18.1 µM (inactive); GI50 (LXFL 529): 19.4 µM (inactive); GI50 (HOP-18): 20.7 µM (inactive)
